Legend:
S. aureus = experiment: Antimicrobial properties of F6H8, Ph. Eur. 5.1.3 method; assay type: cell-based; conditions: for Count: inoculum 2 × 10^5
A. brasiliensis = experiment: as above; assay type: cell-based; conditions: for Count: inoculum 7 × 10^5
Protocol: (§1) The antimicrobial properties of F6H8 were evaluated according to the Ph. Eur. 5.1.3 method.

C. albicans = experiment: as above; assay type: cell-based; conditions: for Count: inoculum 9 × 10^5
Protocol: as §1

E. coli = experiment: as above; assay type: cell-based; conditions: for Count: inoculum 2 × 10^5
Protocol: as §1

P. aeruginosa = experiment: as above; assay type: cell-based; conditions: for Count: inoculum 8 × 10^5
Protocol: as §1

[1] = tested on: viable bacteria; yeasts and molds; experiment: Antimicrobial effectiveness acceptance criteria, Ph. Eur. 5.1.3 (overall); assay type: cell-based; conditions: bacteria: >=2 log reduction at 6 hours, >=3 log at 24 hours, no recovery at 28 days; yeasts and molds: >=2 log at 7 days, no increase at 28 days; no extrinsic preservative
Protocol: as §1

[2] = Solubility of lifitegrast free acid in F6H8; assay type: physicochemical; conditions: lifitegrast free acid added to F6H8 at 0.25% to 10% (w/w); forms a suspension
From the text: The lifitegrast is in soluble in F6H8 and forms a suspension. When left standing the lifitegrast settles to form a sediment.

CCCCCCCCC(F)(F)C(F)(F)C(F)(F)C(F)(F)C(F)(F)C(F)(F)F [F6H8, 1-perfluorohexyloctane]
Log reduction (S. aureus; 0 hour): 4.1 | Log reduction (S. aureus; 6 hours): 5.3 | Count (S. aureus; 6 hours): 0 | Log reduction (S. aureus; 24 hours): 5.3 | Count (S. aureus; 24 hours): 0 | Log reduction (S. aureus; 28 days): 5.3 | Count (S. aureus; 28 days): 0 | Log reduction (A. brasiliensis; 0 hour): 0.9 | Count (A. brasiliensis; 0 hour): 8 × 10^4 | Log reduction (A. brasiliensis; 7 days): 2.8 | Count (A. brasiliensis; 7 days): 1 × 10^3 | Log reduction (A. brasiliensis; 28 days): 2.5 | Count (A. brasiliensis; 28 days): 2 × 10^3 | Log reduction (C. albicans; 0 hour): 2.3 | Count (C. albicans; 0 hour): 5 × 10^3 | Log reduction (C. albicans; 7 days): 6.0 | Count (C. albicans; 7 days): 0 | Log reduction (C. albicans; 28 days): 6.0 | Count (C. albicans; 28 days): 0 | Log reduction (E. coli; 0 hour): 1.0 | Count (E. coli; 0 hour): 2 × 10^4 | Log reduction (E. coli; 6 hours): 5.3 | Count (E. coli; 6 hours): 0 | Log reduction (E. coli; 24 hours): 5.3 | Count (E. coli; 24 hours): 0 | Log reduction (E. coli; 28 days): 5.3 | Count (E. coli; 28 days): 0 | Log reduction (P. aeruginosa; 0 hour): 1.2 | Count (P. aeruginosa; 0 hour): 5 × 10^4 | Log reduction (P. aeruginosa; 6 hours): 3.3 | Count (P. aeruginosa; 6 hours): 4 × 10^2 | Log reduction (P. aeruginosa; 24 hours): 5.0 | Count (P. aeruginosa; 24 hours): 8 | Log reduction (P. aeruginosa; 28 days): 5.9 | Count (P. aeruginosa; 28 days): 0 | Acceptance criteria of the antimicrobial effectiveness assay [1]: meets the acceptance criteria

CS(=O)(=O)c1cccc(C[C@H](NC(=O)c2c(Cl)cc3c(c2Cl)CCN(C(=O)c2ccc4ccoc4c2)C3)C(=O)O)c1 [lifitegrast]
Solubility in F6H8 [2]: in soluble
